Columns and labels:
Experiment in all cases: Kinase panel biochemical assay
Conditions in all cases: 1 μM single concentration, read-out: % residual enzyme activity
DDR1 = DDR1 (Homo sapiens, UniProt Q08345)
Experimental: (§1) In order to measure the protein kinase inhibitory activity (% inhibition) of the compounds of the present invention, biochemical assays were performed on the full kinase panel listed in the following Table 1.
(§2) As an test compound, 1-(3-(7-((6-(4-ethylpiperazine-1-carbonyl)pyridin-3-yl)amino)-1-methyl-2-oxo-1,4-dihydropyrimido[4,5-d]pyrimidin-3(2H)-yl)-4-methylphenyl)-3-(2-methoxyphenyl)urea (Compound No. 14) was used. The kinase inhibitory efficacy was measured upon treatment with a 1 μM single concentration of the test compound to calculate % residual enzyme activity value.
(§3) ABL1, FGFR2, TAOK2/TAO1, EPHA5, EPHB2, EPHB3, RET, LYN B, EPHA2, FRK/PTK5, EPHA8, LCK, EPHB4, FYN, KHS/MAP4K5, DDR1, EPHA3, P38a/MAPK14, EPHA4, FMS, EPHB1, HCK, FGFR1, ABL2/ARG, EPHA6, c-Src, ACK1, FLT4NEGFR3, ERBB4/HER4, DDR2, KDRNEGFR2, LYN, ZAK/MLTK, YES/YES1, BLK, FGR, MLCK2/MYLK2, TAOK1, BMX/ETK, BTK, EPHA1, JAK1, P38b/MAPK11, TIE2/TEK, FLT1NEGFR1, TXK, SRMS, RAF1, SIK1, MLK3/MAP3K11, PEAK1, TRKA, EPHA7, GLK/MAP4K3, MLK2/MAP3K10, TEC, CSK, TRKC, FES/FPS, SIK2, FGFR3, BRK, YSK4/MAP3K19, ARAF, PDGFRb, TNK1, GCK/MAP4K2, PDGFRa, TNIK, TAK1, ERBB2/HER2, LIMK1, HIPK4, FER, EGFR, JAK2, HPK1/MAP4K1, TRKB, RIPK3, LOK/STK10, LIMK2, MLK1/MAP3K9, BRAF, MEKK3, MEK5, STK32B/YANK2, FGFR4, MEKK2, SLK/STK2, FLT3, PKAcg, TAOK3/JIK, TYRO3/SKY, SIK3, IR, LRRK2, PYK2, NEK11, p70S6K/RPS6KB1, LATS2.

FGFR4 = FGFR4 (Homo sapiens, UniProt P22455)
Experimental: as §1, §2, §3

FYN = FYN (Homo sapiens, UniProt P06241)
Experimental: as §1, §2, §3

PDGFRa = PDGFRa (Homo sapiens, UniProt P16234)
Experimental: as §1, §2, §3

ABL1 = ABL1 (Homo sapiens, UniProt P00519)
Experimental: as §1, §2, §3

RAF1 = RAF1 (Homo sapiens, UniProt P04049)
Experimental: as §1, §2, §3

LIMK1 = LIMK1 (Homo sapiens, UniProt P53667)
Experimental: as §1, §2, §3

P38b/MAPK11 = P38b/MAPK11 (Homo sapiens, UniProt Q15759)
Experimental: as §1, §2, §3

ERBB2/HER2 = ERBB2/HER2 (Homo sapiens, UniProt P04626)
Experimental: as §1, §2, §3

BRAF = BRAF (Homo sapiens, UniProt P15056)
Experimental: as §1, §2, §3

EPHB4 = EPHB4 (Homo sapiens, UniProt P54760)
Experimental: as §1, §2, §3

TAOK2/TAO1 = TAOK2/TAO1 (Homo sapiens, UniProt Q9UL54)
Experimental: as §1, §2, §3

TAK1 = TAK1 (Homo sapiens, UniProt O43318)
Experimental: as §1, §2, §3

EPHA7 = EPHA7 (Homo sapiens, UniProt Q15375)
Experimental: as §1, §2, §3

MEKK2 = MEKK2 (Homo sapiens, UniProt Q9Y2U5)
Experimental: as §1, §2, §3

FES/FPS = FES/FPS (Homo sapiens, UniProt P07332)
Experimental: as §1, §2, §3

BMX/ETK = BMX/ETK (Homo sapiens, UniProt P51813)
Experimental: as §1, §2, §3

HPK1/MAP4K1 = HPK1/MAP4K1 (Homo sapiens, UniProt Q92918)
Experimental: as §1, §2, §3

DDR2 = DDR2 (Homo sapiens, UniProt Q16832)
Experimental: as §1, §2, §3

MLK1/MAP3K9 = MLK1/MAP3K9 (Homo sapiens, UniProt P80192)
Experimental: as §1, §2, §3

FGFR1 = FGFR1 (Homo sapiens, UniProt P11362)
Experimental: as §1, §2, §3

ZAK/MLTK = ZAK/MLTK (Homo sapiens, UniProt Q9NYL2)
Experimental: as §1, §2, §3

LIMK2 = LIMK2 (Homo sapiens, UniProt P53671)
Experimental: as §1, §2, §3

ERBB4/HER4 = ERBB4/HER4 (Homo sapiens, UniProt Q15303)
Experimental: as §1, §2, §3

FGFR2 = FGFR2 (Homo sapiens, UniProt P21802)
Experimental: as §1, §2, §3

EPHA2 = EPHA2 (Homo sapiens, UniProt P29317)
Experimental: as §1, §2, §3

PYK2 = PYK2 (Homo sapiens, UniProt Q14289)
Experimental: as §1, §2, §3

JAK1 = JAK1 (Homo sapiens, UniProt P23458)
Experimental: as §1, §2, §3

FGFR3 = FGFR3 (Homo sapiens, UniProt P22607)
Experimental: as §1, §2, §3

LRRK2 = LRRK2 (Homo sapiens, UniProt Q5S007)
Experimental: as §1, §2, §3

TRKA = TRKA (Homo sapiens, UniProt P04629)
Experimental: as §1, §2, §3

Measured: remaining activity at 1 µM

ERBB4/HER4, sequence (Q15303 26-1308): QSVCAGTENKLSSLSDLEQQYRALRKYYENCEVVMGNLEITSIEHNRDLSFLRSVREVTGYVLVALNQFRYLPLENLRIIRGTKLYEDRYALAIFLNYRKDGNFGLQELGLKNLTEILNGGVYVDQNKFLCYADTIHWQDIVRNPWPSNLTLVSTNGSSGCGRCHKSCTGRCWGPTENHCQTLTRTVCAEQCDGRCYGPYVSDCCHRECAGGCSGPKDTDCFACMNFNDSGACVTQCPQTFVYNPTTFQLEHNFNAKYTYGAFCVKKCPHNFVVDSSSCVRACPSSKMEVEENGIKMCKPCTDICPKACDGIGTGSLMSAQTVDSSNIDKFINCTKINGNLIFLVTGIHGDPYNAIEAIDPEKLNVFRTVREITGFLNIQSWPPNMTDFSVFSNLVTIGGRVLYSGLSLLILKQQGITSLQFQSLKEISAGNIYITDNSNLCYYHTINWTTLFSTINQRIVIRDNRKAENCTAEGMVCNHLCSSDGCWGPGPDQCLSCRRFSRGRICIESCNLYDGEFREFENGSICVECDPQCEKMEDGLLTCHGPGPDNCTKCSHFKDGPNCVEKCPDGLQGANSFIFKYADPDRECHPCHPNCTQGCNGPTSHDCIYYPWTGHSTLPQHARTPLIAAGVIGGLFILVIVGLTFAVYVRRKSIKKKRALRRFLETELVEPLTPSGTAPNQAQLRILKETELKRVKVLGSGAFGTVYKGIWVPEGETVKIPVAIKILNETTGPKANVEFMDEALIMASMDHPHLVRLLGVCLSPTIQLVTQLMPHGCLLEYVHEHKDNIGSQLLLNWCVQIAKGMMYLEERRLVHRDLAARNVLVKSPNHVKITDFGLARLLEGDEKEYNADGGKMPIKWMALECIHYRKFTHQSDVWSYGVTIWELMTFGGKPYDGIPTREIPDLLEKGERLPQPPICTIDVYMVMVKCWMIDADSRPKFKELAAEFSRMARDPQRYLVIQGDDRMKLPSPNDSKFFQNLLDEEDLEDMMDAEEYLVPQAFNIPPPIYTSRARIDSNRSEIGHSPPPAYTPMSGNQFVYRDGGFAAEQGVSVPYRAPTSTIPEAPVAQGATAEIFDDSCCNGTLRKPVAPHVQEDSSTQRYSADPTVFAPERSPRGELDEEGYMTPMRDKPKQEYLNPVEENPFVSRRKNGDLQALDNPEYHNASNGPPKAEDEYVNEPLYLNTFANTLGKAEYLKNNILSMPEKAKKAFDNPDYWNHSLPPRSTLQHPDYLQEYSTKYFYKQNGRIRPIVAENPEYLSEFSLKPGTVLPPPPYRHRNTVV
MLK1/MAP3K9, sequence (P80192 whole entry): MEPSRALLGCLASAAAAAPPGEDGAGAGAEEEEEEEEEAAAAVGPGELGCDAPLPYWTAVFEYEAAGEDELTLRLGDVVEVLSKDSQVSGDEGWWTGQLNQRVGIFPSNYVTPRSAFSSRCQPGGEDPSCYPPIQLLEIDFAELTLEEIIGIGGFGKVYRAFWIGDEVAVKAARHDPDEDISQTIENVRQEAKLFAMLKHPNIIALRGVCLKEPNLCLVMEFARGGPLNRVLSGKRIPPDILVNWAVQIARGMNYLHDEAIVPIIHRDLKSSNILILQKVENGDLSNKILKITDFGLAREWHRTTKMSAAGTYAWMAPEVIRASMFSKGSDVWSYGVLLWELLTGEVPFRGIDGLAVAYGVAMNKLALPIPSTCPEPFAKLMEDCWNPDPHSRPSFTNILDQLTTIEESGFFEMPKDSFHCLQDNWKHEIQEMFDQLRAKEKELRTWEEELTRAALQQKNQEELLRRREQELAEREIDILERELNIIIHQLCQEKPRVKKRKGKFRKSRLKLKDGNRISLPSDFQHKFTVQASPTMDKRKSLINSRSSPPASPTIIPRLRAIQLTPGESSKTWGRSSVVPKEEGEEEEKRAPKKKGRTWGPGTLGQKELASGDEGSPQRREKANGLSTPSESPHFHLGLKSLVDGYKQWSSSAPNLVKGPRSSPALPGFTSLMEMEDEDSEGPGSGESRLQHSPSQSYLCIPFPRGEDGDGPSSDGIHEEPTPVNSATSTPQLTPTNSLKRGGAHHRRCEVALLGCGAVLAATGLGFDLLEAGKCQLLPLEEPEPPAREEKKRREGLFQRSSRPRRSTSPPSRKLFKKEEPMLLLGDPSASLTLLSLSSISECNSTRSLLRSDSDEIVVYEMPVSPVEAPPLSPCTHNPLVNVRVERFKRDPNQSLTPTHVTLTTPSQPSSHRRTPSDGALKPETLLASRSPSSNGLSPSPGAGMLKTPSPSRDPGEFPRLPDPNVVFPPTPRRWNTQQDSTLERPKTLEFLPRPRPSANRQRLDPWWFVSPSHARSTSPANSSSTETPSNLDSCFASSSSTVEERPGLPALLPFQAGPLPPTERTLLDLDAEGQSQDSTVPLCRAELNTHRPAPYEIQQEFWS
RAF1, sequence (P04049 whole entry): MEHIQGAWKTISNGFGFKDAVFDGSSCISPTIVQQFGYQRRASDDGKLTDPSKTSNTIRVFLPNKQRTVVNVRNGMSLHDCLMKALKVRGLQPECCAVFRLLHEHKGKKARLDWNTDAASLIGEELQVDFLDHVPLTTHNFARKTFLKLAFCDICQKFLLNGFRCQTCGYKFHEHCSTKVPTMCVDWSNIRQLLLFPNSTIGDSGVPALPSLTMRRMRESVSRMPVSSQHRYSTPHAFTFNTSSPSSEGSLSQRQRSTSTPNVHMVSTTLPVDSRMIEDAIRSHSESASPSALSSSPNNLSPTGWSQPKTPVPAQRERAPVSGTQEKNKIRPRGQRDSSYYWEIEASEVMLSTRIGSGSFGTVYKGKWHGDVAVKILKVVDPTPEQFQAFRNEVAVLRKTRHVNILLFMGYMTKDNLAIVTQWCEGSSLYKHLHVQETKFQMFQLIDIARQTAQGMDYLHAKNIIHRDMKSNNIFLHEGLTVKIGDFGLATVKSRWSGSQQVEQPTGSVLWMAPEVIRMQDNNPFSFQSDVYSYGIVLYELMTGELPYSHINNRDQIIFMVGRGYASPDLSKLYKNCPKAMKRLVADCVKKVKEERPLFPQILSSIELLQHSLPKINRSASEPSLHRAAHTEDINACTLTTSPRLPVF
EPHB4, sequence (P54760 16-987): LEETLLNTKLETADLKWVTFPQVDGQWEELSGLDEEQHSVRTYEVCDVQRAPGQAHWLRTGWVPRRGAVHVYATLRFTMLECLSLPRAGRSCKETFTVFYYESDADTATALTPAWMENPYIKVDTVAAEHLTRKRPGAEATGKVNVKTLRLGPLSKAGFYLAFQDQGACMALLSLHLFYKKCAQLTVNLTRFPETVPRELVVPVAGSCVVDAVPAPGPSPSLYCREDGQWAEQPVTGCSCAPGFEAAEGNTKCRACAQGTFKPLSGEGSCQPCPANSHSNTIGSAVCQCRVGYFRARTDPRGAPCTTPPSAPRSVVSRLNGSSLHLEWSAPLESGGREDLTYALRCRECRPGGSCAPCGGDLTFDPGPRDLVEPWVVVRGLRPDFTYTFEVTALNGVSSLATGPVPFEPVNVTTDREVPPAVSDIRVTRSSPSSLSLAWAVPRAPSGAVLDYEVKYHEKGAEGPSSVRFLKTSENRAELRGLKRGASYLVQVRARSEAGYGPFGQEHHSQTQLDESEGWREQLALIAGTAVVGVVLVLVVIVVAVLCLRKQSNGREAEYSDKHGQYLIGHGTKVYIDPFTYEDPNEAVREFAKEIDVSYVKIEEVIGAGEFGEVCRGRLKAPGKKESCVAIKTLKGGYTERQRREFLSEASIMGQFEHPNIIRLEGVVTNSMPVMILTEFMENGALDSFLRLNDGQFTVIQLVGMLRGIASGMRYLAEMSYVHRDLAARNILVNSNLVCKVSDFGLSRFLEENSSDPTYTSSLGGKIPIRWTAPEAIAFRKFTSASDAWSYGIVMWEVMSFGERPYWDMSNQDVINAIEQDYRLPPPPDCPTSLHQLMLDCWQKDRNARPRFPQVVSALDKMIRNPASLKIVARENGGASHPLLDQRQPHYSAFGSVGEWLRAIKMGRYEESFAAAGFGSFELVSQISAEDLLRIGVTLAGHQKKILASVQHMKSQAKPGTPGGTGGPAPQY
BRAF, sequence (P15056 whole entry): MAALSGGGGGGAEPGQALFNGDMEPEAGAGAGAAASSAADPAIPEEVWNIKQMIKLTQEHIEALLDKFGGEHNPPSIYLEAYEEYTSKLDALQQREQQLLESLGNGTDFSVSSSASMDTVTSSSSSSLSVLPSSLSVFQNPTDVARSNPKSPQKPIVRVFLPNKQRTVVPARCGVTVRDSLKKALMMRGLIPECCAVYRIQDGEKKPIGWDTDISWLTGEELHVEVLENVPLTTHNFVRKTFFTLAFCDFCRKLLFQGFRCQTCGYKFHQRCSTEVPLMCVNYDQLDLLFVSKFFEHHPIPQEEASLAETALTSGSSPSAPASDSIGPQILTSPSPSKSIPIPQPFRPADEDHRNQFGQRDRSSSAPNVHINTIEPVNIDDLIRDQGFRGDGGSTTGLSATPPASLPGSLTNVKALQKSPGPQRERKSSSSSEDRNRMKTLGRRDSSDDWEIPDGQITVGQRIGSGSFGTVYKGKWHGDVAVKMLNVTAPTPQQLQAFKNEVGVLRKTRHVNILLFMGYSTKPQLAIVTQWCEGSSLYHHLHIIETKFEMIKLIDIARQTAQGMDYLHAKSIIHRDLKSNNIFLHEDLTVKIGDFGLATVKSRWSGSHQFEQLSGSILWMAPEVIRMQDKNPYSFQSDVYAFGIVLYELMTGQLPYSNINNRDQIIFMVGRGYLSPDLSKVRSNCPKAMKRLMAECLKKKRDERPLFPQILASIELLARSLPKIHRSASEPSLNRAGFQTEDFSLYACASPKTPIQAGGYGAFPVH
TAK1, sequence (O43318 1-303 limits assumed): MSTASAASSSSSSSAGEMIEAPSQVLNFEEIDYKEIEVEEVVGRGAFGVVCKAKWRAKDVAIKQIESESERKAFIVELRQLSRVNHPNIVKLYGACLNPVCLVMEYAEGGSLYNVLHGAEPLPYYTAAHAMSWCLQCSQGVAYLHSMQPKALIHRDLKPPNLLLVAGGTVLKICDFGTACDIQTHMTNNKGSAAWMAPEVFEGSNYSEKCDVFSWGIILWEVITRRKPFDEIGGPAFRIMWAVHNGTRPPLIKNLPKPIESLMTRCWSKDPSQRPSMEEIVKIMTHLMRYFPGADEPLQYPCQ

CCN1CCN(C(=O)c2ccc(Nc3ncc4c(n3)N(C)C(=O)N(c3cc(NC(=O)Nc5ccccc5OC)ccc3C)C4)cn2)CC1 [Compound No. 14, 1-(3-(7-((6-(4-ethylpiperazin-1-carbonyl)pyridin-3-yl)amino)-1-methyl-2-oxo-1,4-dihydropyrimido[4,5-d]pyrimidin-3(2H)-yl)-4-methylphenyl)-3-(2-methoxyphenyl)urea]
≤ 30%: all assays above
